Source: patent publication US20250084079A1, “COMPOSITIONS AND METHODS FOR INHIBITION OF RAS” (TheRas, Inc., priority 2022, published 2025)
Like-named read-outs stand apart in the source and are kept apart here.

Experiments:
[1] = molecular target: T1, Avi-KRAS G12D (1-169) GppNHp/RAF1 RBD-3xFLAG (52-151) (Homo sapiens, UniProt P01116, G12D); assay: RAS-effector PPI HTRF disruption assay, Raf1-GppNHp-KRAS G12D; assay type: biochemical
T1 construct: 100 nM Avi-KRAS G12D (1-169) GppNHp
Procedure: (§1) A protein:protein interaction (PPI) Homogeneous Time Resolved Fluorescence (HTRF) assay was used to determine the effectiveness of compounds of the present disclosure in disrupting KRAS protein and effector (RAF1 or PIK3 CA) binding.
(§2) The HTRF assay used the following reagents and proteins: (i) 375 nM Avi-KRAS G12D/Q25A (1-169) GppNHp/3×FLAG-PI3KCA (157-299); (ii) 100 nM Avi-KRAS G12D (1-169) GppNHp/RAF1 RBD-3×FLAG (52-151); (iii) 50 nM Avi-KRAS G12V (1-169) GppNHp/RAF1 RBD-3×FLAG (52-151); (iv) 50 nM Avi-KRAS WT (1-169) GppNHp/RAF1 RBD-3×FLAG (52-151); and (v) 35 nM Avi-PI3K RBD CA-3×FLAG; Assay Buffer: 50 mM Tris pH 7.5, 100 mM NaCl, 5 mM MgCl2, 0.1% BSA, 0.01% Tween, 1 mM TCEP, 10% DMSO; Bead Buffer: 50 mM Tris pH 7.5, 0.01% Tween 20; Assay volume: 20 μL (384 well plate-low volume format); and Compound titration: 100-0.02 μM, 3× dilution series.
(§3) The HTRF assay employed the following protocol:
(§4) Compounds were dispensed in assay plate (384-well, Grenier Bione #784075) using Echo (model 555) with dose response settings: 200 nL final volume, titration from 100 μM as a 10-point dilution series. Protein mix was prepared in assay buffer, and dispensed on plates, 10 μL per well, then incubated for 1 h at room temperature, with 700 rpm shaking. Reagents mix was prepared and dispensed on plates, 10 μL per well, then incubated for 1 h at room temperature, with 700 rpm shaking.
(§5) Plates were analyzed on an Envision plate reader using the following setting: Excitation 320 nm, Bandwidth […]; Emission 615 nm, Bandwidth […], Gain 100%, Flashes 100, Lag 60 μs. Data was reported as percentage of activity, with DMSO as 100%. Data was plotted and analyzed using Prism 8. The SPR Kd, biochemical Raf1-KRAS G12D/G12V/WT-GppNHP and PI3KCA-KRAS G12D/Q25A-GppNHp disruption assay IC50 of selected compounds described herein are shown in Table 4.

[2] = molecular target: T2, Avi-KRAS G12D/Q25A (1-169) GppNHp/3xFLAG-PI3KCA (157-299) (Homo sapiens, UniProt P01116, G12D/Q25A); assay: RAS-effector PPI HTRF disruption assay, PI3KCA-GppNHp-KRAS G12D/Q25A; assay type: biochemical
T2 construct: 375 nM Avi-KRAS G12D/Q25A (1-169) GppNHp
T2 sequence (P01116 1-169 isoform P01116-2 G12D/Q25A): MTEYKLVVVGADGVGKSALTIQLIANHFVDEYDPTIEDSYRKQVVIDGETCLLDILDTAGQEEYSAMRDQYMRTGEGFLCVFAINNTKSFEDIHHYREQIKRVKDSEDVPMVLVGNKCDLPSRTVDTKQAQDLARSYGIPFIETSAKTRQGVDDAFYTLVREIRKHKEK
Procedure: as §1, §2, §3, §4, §5

[3] = molecular target: T3, Avi-KRAS G12V (1-169) GppNHp/RAF1 RBD-3xFLAG (52-151) (Homo sapiens, UniProt P01116, G12V); assay: RAS-effector PPI HTRF disruption assay, Raf1-GppNHp-KRAS G12V; assay type: biochemical
T3 construct: 50 nM Avi-KRAS G12V (1-169) GppNHp
T3 sequence (P01116 1-169 isoform P01116-2 G12V): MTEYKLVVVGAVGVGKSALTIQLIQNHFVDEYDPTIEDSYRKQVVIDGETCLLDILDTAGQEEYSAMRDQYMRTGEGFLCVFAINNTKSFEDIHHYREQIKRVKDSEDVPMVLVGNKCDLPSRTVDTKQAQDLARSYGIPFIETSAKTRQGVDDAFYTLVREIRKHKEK
Procedure: as §1, §2, §3, §4, §5

[4] = molecular target: T4, Avi-KRAS WT (1-169) GppNHp/RAF1 RBD-3xFLAG (52-151) (Homo sapiens, UniProt P01116); assay: RAS-effector PPI HTRF disruption assay, Raf1-GppNHp-KRAS WT; assay type: biochemical
T4 construct: 50 nM Avi-KRAS WT (1-169) GppNHp
T4 sequence (P01116 1-169 isoform P01116-2): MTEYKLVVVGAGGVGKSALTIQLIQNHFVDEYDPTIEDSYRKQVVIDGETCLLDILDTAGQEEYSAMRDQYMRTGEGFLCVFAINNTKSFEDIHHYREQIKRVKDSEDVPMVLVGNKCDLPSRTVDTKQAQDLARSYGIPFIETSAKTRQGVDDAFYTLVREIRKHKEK
Procedure: as §1, §2, §3, §4, §5

[5] = test system: pERK in GP2d cells (KRAS G12D); assay: Cell-based pERK HTRF assay in GP2d cell; settings: 60 min incubation
Procedure: A pERK assay (Perkin Elmer) was used to determine the effectiveness of compounds in disrupting KRAS G12D protein/effector signaling in cells.
On Day 1, cells (GP2d) were seeded into 96-well plates at 3×10^4 cells/well in 80 μL complete growth media (DMEM, 10% FBS).
On Day 2, cells were treated with compounds at 0.25% DMSO. The source plate was created with compounds diluted in media at 5-fold the final assay concentration. The compounds were run in a 9-point concentration curve starting at 1 μM, with a half-log dilution between concentrations. 20 μL was transferred onto the cell plates (final volume in wells was 100 μL). Plates were harvested after 60 min incubation by aspirating media and adding kit-supplied 1× supplemented lysis buffer to all wells (50 μL per well). Plates were then placed on a plate shaker and incubated at 850 rpm for an additional 30 min.
Antibody mixture solution is prepared by diluting aliquoted d2 and Eu Cryptate antibodies 1:20 in kit supplied detection buffer, mix the diluted antibodies solutions (1:1 v:v). 4 μL of this solution is then added to a 384-well detection plate (Perkin Elmer; 6008230).
Samples were homogenized by pipetting up and down and then transferred (16 μL of cell lysates) from the 96-well cell culture plate to two wells of the HTRF 384-well detection plate containing the antibody solution. Plates were centrifuged (524 g for 1 min) and allowed to incubate between 4 and 24 h at room temperature. Maximum signal is reached after 4 h incubation time and remains stable over a period of 24 hours. Therefore, readings can be made between 4 and 24 h of incubation. Plates were centrifuged again (524 g for Imin), then analyzed on the EnVision plate reader using the following settings: Excitation 320 nm, Bandwidth 75 nm; Emission 615 nm, Bandwidth 85 nm; Gain 100%; Flashes 100; Lag 60 μs.

T1 sequence (P01116 1-169 isoform P01116-2 G12D): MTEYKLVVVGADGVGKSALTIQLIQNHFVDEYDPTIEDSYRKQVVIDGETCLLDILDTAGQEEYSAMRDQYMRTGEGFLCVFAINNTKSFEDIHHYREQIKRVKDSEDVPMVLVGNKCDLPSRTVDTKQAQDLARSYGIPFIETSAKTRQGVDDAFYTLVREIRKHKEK

| IC50 [1] [nM] | IC50 [2] [nM] | IC50 [3] [nM] | IC50 [4] [nM] | IC50 ([5]; read-out: pERK-Gp2D-1 hr) [nM] | IC50 ([5]; GP2d, 1 h) [nM] | Structure (SMILES) |
| --- | --- | --- | --- | --- | --- | --- |
| 1000 to 10000 | 1000 to 10000 | 1000 to 10000 | 1000 to 10000 | 100 to 1000 | – | C[C@@H]1CNCC1Oc1nc(OC[C@@]23CCCN2C[C@H](F)C3)nc2c(F)c(-c3ccc(F)c4sc(N)nc34)c(C(F)(F)F)cc12 (stereo partly drawn) [Compound 16] |
| > 10000 | > 10000 | > 10000 | > 10000 | – | > 1000 | C[C@H]1NCC[C@H]1Oc1nc(OC[C@@]23CCCN2C[C@H](F)C3)nc2c(F)c(-c3ccc(F)c4scnc34)c(C(F)(F)F)cc12 [Compound 23] |
| > 10000 | > 10000 | > 10000 | > 10000 | – | > 1000 | Nc1nc2c(-c3ncc4c(O[C@@H]5CCNC5)nc(OC[C@@]56CCCN5C[C@H](F)C6)nc4c3F)ccc(F)c2s1 [Compound 24, 7-fluoro-4-(8-fluoro-2-(((2R,7aS)-2-fluorotetrahydro-1H-pyrrolizin-7a(5H)-yl)methoxy)-4-(((R)-pyrrolidin-3-yl)oxy)pyrido[4,3-d]pyrimidin-7-yl)benzo[d]thiazol-2-amine] |
| 100 to 1000 | 100 to 1000 | 1000 to 10000 | 100 to 1000 | – | ≤ 100 | C[C@H]1NCC[C@H]1Oc1nc(OCC23CCCN2C[C@H](F)C3)nc2c(F)c(-c3ccc(F)c4sc(N)nc34)c(C(F)(F)F)cc12 (stereo partly drawn) [Compound 25] |
| 100 to 1000 | > 10000 | 1000 to 10000 | 1000 to 10000 | – | 100 to 1000 | CC1(C)NCC[C@H]1Oc1nc(OC[C@@]23CCCN2C[C@H](F)C3)nc2c(F)c(-c3ccc(F)c4sc(N)nc34)c(C(F)(F)F)cc12 [Compound 27] |
| 1000 to 10000 | > 10000 | > 10000 | 1000 to 10000 | 100 to 1000 | – | Nc1nc2c(-c3c(C(F)(F)F)cc4c(O[C@H]5CNCC5(F)F)nc(OC[C@@]56CCCN5C[C@H](F)C6)nc4c3F)ccc(F)c2s1 [Compound 28] |
| 1000 to 10000 | > 10000 | > 10000 | > 10000 | – | > 1000 | Nc1nc2c(-c3cc4nc(OC[C@@]56CCCN5C[C@H](F)C6)nc(O[C@H]5CNC[C@@H]5F)c4cc3C(F)(F)F)ccc(F)c2s1 [Compound 30] |
| 1000 to 10000 | > 10000 | > 10000 | > 10000 | – | > 1000 | Nc1nc2c(-c3cc4nc(OC[C@@]56CCCN5C[C@H](F)C6)nc(O[C@H]5CNC[C@H]5F)c4cc3C(F)(F)F)ccc(F)c2s1 [Compound 31] |
| > 10000 | > 10000 | > 10000 | > 10000 | – | > 1000 | Nc1nc2c(-c3ncc4c(O[C@@H]5CCNC5)nc(OC[C@@]56CCCN5C[C@H](F)C6)nc4c3F)c(F)cc(F)c2s1 [Compound 32] |
| 1000 to 10000 | 1000 to 10000 | > 10000 | 1000 to 10000 | – | 100 to 1000 | Nc1nc2c(-c3c(C(F)(F)F)cc4c(O[C@H]5CNC[C@@H]5F)nc(OC[C@@]56CCCN5C[C@H](F)C6)nc4c3Cl)ccc(F)c2s1 [Compound 33] |
| 100 to 1000 | 100 to 1000 | 100 to 1000 | 100 to 1000 | – | ≤ 100 | CC1(C)NCCC1Oc1nc(OC[C@@]23CCCN2C[C@H](F)C3)nc2c(F)c(-c3ccc(F)c4sc(N)c(C#N)c34)c(C(F)(F)F)cc12 (stereo partly drawn) [Compound 34] |
| 100 to 1000 | > 10000 | 1000 to 10000 | 1000 to 10000 | – | 100 to 1000 | C[C@H]1NCC[C@H]1Oc1nc(OC[C@@]23CCCN2C[C@H](F)C3)nc2cc(-c3ccc(F)c4sc(N)nc34)c(C(F)(F)F)cc12 [Compound 35] |
| 100 to 1000 | > 10000 | > 10000 | > 10000 | – | > 1000 | N#Cc1c(N)sc2c(F)ccc(-c3cc4nc(OC[C@@]56CCCN5C[C@H](F)C6)nc(O[C@H]5CNC[C@@H]5F)c4cc3C(F)(F)F)c12 [Compound 46] |
| ≤ 100 | > 10000 | 100 to 1000 | ≤ 100 | – | ≤ 100 | C[C@H]1NCC[C@H]1Oc1nc(OC[C@@]23CCCN2C[C@H](F)C3)nc2c(F)c(-c3ccc(F)c4sc(N)c(C#N)c34)c(C(F)(F)F)cc12 [Compound 47, 2-amino-7-fluoro-4-(8-fluoro-2-(((2R,7aS)-2-fluorotetrahydro-1H-pyrrolizin-7a(5H)-yl)methoxy)-4-(((2R,3R)-2-methylpyrrolidin-3-yl)oxy)-6-(trifluoromethyl)quinazolin-7-yl)benzo[b]thiophene-3-carbonitrile] |
| 100 to 1000 | 100 to 1000 | > 10000 | 1000 to 10000 | – | 100 to 1000 | N#Cc1c(N)sc2c(F)ccc(-c3ccc4c(O[C@@H]5CCNC5)nc(OC[C@@]56CCCN5C[C@H](F)C6)nc4c3F)c12 [Compound 48] |
| 100 to 1000 | 100 to 1000 | 1000 to 10000 | 1000 to 10000 | – | ≤ 100 | N#Cc1c(N)sc2c(F)ccc(-c3cc4nc(OC[C@@]56CCCN5C[C@H](F)C6)nc(O[C@H]5CNC[C@H]5F)c4cc3C(F)(F)F)c12 [Compound 49] |
| 100 to 1000 | 100 to 1000 | 100 to 1000 | 100 to 1000 | – | ≤ 100 | N#Cc1c(N)sc2c(F)ccc(-c3c(C(F)(F)F)cc4c(O[C@@H]5CCN[C@@H]5CO)nc(OC[C@@]56CCCN5C[C@H](F)C6)nc4c3F)c12 [Compound 50] |
| 1000 to 10000 | 1000 to 10000 | > 10000 | > 10000 | – | > 1000 | N#Cc1c(N)sc2c(F)ccc(-c3ncc4c(O[C@H]5CNC[C@H]5F)nc(OC[C@@]56CCCN5C[C@H](F)C6)nc4c3F)c12 [Compound 51] |
| 100 to 1000 | 1000 to 10000 | > 10000 | 1000 to 10000 | – | 100 to 1000 | Nc1nc2c(-c3c(C(F)(F)F)cc4c(O[C@H]5CN[C@H](CO)C5)nc(OCC56CCCN5C[C@H](F)C6)nc4c3F)ccc(F)c2s1 (stereo partly drawn) [Compound 52] |
| 100 to 1000 | 100 to 1000 | 1000 to 10000 | 100 to 1000 | – | ≤ 100 | N#Cc1c(N)sc2c(F)ccc(-c3c(C(F)(F)F)cc4c(O[C@H]5CNC[C@@H]5F)nc(OC[C@@]56CCCN5C[C@H](F)C6)nc4c3F)c12 [Compound 53] |

| Structure (SMILES) | IC50 [1] [nM] | IC50 [2] [nM] | IC50 [3] [nM] | IC50 [4] [nM] | IC50 ([5]; read-out: pERK-Gp2D-1 hr) [nM] | IC50 ([5]; GP2d, 1 h) [nM] |
| --- | --- | --- | --- | --- | --- | --- |
| Nc1nc2c(-c3c(C(F)(F)F)cc4c(OC5CC6CC[C@H]5N6)nc(OCC56CCCN5CCC6)nc4c3F)ccc(F)c2s1 (stereo partly drawn) [Compound 36] | 100 to 1000 | > 10000 | > 10000 | 1000 to 10000 | – | > 1000 |
